According to patent US4350704A, “Substituted acyl derivatives of octahydro-1H-indole-2-carboxylic acids” (Warner-Lambert Company, priority 1981, dated 1982):
Counter-ions that a name gives are not always drawn.

target: T1, guinea pig serum ACE (Cavia porcellus, UniProt H0UWL7); assay: In vitro ACE Assay: angiotensin converting enzyme inhibitory activity; type: biochemical; conditions: 10 min preincubation, 3H-hippuryl-glycylglycine substrate, 60 minute incubation at 37° C., read-out: IC50, Activity of Compounds of Formula V
T1 construct: ACE from guinea pig serum; from tissue; host or cells: guinea pig serum
T1 sequence (H0UWL7 33-1302): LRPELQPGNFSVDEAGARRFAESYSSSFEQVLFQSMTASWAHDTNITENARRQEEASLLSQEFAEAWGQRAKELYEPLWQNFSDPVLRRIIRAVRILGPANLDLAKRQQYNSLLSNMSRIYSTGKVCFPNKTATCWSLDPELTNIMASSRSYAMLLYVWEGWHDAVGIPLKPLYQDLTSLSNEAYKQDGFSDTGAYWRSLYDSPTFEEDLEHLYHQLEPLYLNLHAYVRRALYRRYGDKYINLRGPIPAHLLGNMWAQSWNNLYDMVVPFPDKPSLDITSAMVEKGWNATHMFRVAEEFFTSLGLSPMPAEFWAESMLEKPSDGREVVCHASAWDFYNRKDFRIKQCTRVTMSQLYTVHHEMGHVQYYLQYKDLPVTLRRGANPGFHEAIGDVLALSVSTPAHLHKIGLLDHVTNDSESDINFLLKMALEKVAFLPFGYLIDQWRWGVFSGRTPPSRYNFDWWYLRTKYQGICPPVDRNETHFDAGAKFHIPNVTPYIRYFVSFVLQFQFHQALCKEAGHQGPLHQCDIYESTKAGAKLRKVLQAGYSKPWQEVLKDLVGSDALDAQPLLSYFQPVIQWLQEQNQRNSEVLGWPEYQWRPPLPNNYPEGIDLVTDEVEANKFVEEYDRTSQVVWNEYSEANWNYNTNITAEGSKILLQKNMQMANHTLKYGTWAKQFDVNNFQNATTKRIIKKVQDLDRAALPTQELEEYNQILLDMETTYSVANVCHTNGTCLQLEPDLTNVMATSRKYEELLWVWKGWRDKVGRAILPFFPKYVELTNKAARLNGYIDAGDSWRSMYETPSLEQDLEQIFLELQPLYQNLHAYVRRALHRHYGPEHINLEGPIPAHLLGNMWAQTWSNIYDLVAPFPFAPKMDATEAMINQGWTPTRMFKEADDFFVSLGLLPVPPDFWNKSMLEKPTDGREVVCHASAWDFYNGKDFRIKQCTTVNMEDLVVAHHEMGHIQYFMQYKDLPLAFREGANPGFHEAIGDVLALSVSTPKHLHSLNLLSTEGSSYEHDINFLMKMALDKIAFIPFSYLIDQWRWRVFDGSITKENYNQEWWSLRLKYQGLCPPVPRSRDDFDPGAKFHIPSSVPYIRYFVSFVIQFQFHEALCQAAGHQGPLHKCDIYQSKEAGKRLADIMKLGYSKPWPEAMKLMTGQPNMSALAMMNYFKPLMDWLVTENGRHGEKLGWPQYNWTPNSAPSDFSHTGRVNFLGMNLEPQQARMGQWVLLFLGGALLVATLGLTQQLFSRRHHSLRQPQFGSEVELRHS
Description: In vitro ACE Assay: Angiotensin converting enzyme (ACE) inhibitory activity is determined by assaying guinea pig serum ACE in the presence and absence of the test compound. ACE from guinea pig serum and the test compounds are preincubated for 10 minutes before the addition of the labelled substrate ^3 H-hippuryl-glycylglycine. […] ACE cleaves the hippuryl-glycyl bond to form the dipeptide glycyl-glycine and ^3 H-hippuric acid. The ^3 H-hippuric acid is then extracted with ethyl acetate and the ACE inhibition of a given sample calculated on the basis of the ^3 H-hippuric acid generated.

Row | IC50 | SMILES
1 | 3800 nM | CCOC(=O)[C@@H]1C[C@@H]2CCCC[C@@H]2N1C(=O)CCSC(C)=O (relative stereo) [V: R=C2H5; R1=H; R2=CH3CO; --, Ethyl (2α, 3aβ, 7aβ)-Octahydro-1-[3-(acetylthio)propanoyl]-1H-indole-2-carboxylate]
2 | 58 nM | CC(C)(C)C(=O)SCCC(=O)N1[C@H](C(=O)O)C[C@@H]2CCCC[C@@H]21 (relative stereo) [V: R=H; R1=H; R2=(CH3)3CCO; dl]
3 | 450 nM | CC(=O)SCCC(=O)N1[C@H](C(=O)O)C[C@@H]2CCCC[C@@H]21 (relative stereo) [V: R=H; R1=H; R2=CH3CO; --, (2α, 3aβ, 7aβ)-Octahydro-1-[3-(acetylthio)propanoyl]-1H-indole-2-carboxylic Acid]
4 | 21 nM | O=C(O)[C@@H]1C[C@@H]2CCCC[C@@H]2N1C(=O)CCS (relative stereo) [V: R=H; R1=H; R2=H; --, (2α, 3aβ, 7aβ)-Octahydro-1-(3-mercaptopropanoyl)-1H-indole-2-carboxylic Acid]
5 | 5.2 nM | CC(CS)C(=O)N1[C@H](C(=O)O)C[C@@H]2CCCC[C@@H]21 (single isomer, unassigned; diastereomer a) [V: R=H; R1=CH3; R2=H; l, A, (1)-(2α, 3aβ, 7aβ)-Octahydro-1-(3-mercapto-2-methylpropanoyl)-1H-2-carboxylic Acid (Diastereomer A), Dicyclohexylamine Salt]
6 | 540 nM | CC(CSC(=O)c1ccccc1)C(=O)N1[C@H](C(=O)O)C[C@@H]2CCCC[C@@H]21 (single isomer, unassigned; diastereomer a) [V: R=H; R1=CH3; R2=PhCO; l, A, (1)-(2α, 3aβ, 7aβ)-Octahydro-1-[3-(benzoylthio)-2-methylpropanoyl]-1H-indole-2-carboxylic Acid (Diastereomer A)]
